Assay results as given in patent US9732087B2, “Diamino-pyridine, pyrimidine, and pyridazine modulators of the histamine H4 receptor” (JANSSEN PHARMACEUTICA NV, priority 2008, dated 2017).
Counter-ions that a name gives are not always drawn. Like-named read-outs stand apart in the source and are kept apart here.

How the values were obtained:
[1] = biological target: T1, human H4 receptor (Homo sapiens (Human), UniProt Q9H3N8); experiment: Binding assay on recombinant human histamine H4 receptor ([3H]histamine competition, SK-N-MC cell membranes); conditions: [3H]histamine 10 nM, average of results
In short: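 Scintillation counting of filter-bound [3H]histamine after rapid harvesting on 0.5% PEI-treated GF/C filters with ice-cold Tris/EDTA washes. Receptor source: 30,000 g membrane pellets of SK-N-MC cells stably or transiently expressing human H4. Values shown as '>' are the top concentration tested.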

[2] = biological target: T1, human H4 receptor; experiment: cell-based; assay type: cell-based
Experimental: SK-N-MC cell lines were created that express a reporter gene construct and the human H4 receptor full-coding region (NCBI accession No. AF312230). The reporter gene was β-galactosidase under the control of cyclic AMP-responsive elements. Cells were plated in 96-well plates the night before the assay. Histamine was used as the agonist for all assay. For the H4 receptor, the inhibition of forskolin-stimulated cAMP production was measured. For determination of antagonist activity, compounds were added 10 min prior to the addition of agonist, which was added directly to the cell medium. Forskolin (5 μM final concentration) was added 10 min after the addition of histamine. Cells were returned to the incubator for 6 h at 37° C. The medium was then aspirated, and the cells were washed with […] of phosphate-buffered saline (PBS). Cells were lysed with 25 μL of 0.1X assay buffer (10 mM sodium phosphate, pH 8, 0.2 mM MgSO4, and 0.01 mM MnCl2) and incubated at rt for 10 min. Cells were then incubated for 10 min with 100 μL of 1X assay buffer containing 0.5% (v/v) Triton X-100 and 40 mM β-mercaptoethanol. Color was developed using 25 μL of 1 mg/mL substrate solution (chlorophenol red β-D-galactopyranoside; Roche Applied Science, Indianapolis, Ind.). Color was quantitated on a microplate reader by measuring the absorbance at 570 nm. The data from each concentration-response curve were fitted to a sigmoidal curve to obtain the maximum response, Hill coefficient, and EC50 using Prism (GraphPad Software, San Diego, Calif.). Dose ratios were calculated from individual concentration-response curves of agonists at three to five antagonist concentrations. Apparent pA2 values were calculated using a Schild plot (ND=not determined).

[3] = test system: diabetes induced obese (DIO) mouse model; experiment: Insulin resistance in diabetes induced obese (DIO) mouse model; assay type: in vivo
Experimental: Insulin Resistance in Diabetes Induced Obese Mouse Model.
The effect of administration of an H4R antagonist, 5-fluoro-4-methyl-2-{5-methyl-2-[4-(1-methyl-piperidin-4-yl)-butoxy]-pyridin-4-yl}-1H-benzoimidazole (U.S. Pat. No. 7,432,378, Example 165), was tested in the treatment of insulin resistance in the diabetes induced obese (DIO) mouse model. […] Our data support the claim that H4R antagonists have beneficial properties towards the treatment of type 2 diabetes and related metabolic diseases.

[4] = test system: lipopolysaccharide (LPS)-induced tumor necrosis factor alpha (TNF-α) production; conditions: in vivo; cited from earlier work
[5] = test system: mouse models of asthma, arthritis and dermatitis; conditions: in vivo; cited from earlier work
[6] = test system: eosinophils; conditions: cited from earlier work
[7] = test system: mast cells; conditions: cited from earlier work
[8] = test system: mast cells; conditions: cited from earlier work; remark: listed apart in the source
[9] = biological target: H4 receptor (H4R) (Homo sapiens (Human), UniProt Q9H3N8); conditions: in vitro; cited from earlier work
[10] = membranes harvested with cell harvester, read-out: Cell Harvester Ki
[11] = apparent pA2 from Schild plot, antagonism of histamine inhibition of forskolin-stimulated cAMP, read-out: pA2 (converted)
[12] = membranes harvested with 96 well Brandel system, read-out: Brandel Ki
[13] = apparent pA2 from Schild plot, antagonism of histamine inhibition of forskolin-stimulated cAMP

| Ki [1, 10] | Kb [2, 11] | SMILES | further results |
| --- | --- | --- | --- |
| 18.3 nM | 7.94 nM | CN[C@@H]1CCN(c2cnnc(NCC(C)(C)C)c2)C1 [Example 392, N-(2,2-Dimethylpropyl)-5-[(3R)-3-(methylamino)pyrrolidin-1-yl]pyridazin-3-amine] |  |
| 4.9 nM | 1.38 nM | CN[C@@H]1CCN(c2ccnc(NCC3CC3)c2)C1 [Example 4, N-(Cyclopropylmethyl)-4-[(3R)-3-(methylamino)pyrrolidin-1-yl]pyridin-2-amine ditrifluoroacetate] |  |
| 15 nM |  | CN[C@@H]1CCN(c2cnnc(NCC(C)C)c2)C1 [Example 95, 5-[(3R)-3-(Methylamino)pyrrolidin-1-yl]-N-(2-methylpropyl)pyridazin-3-amine] | Ki [1, 12]: 15 nM; pA2 [2, 13]: 7.8 |
| 8.41 nM |  | CN[C@H]1CCN(c2ccnc(NC3CC4CCC3C4)c2)C1 (stereo partly drawn) [Example 231, N-Bicyclo[2.2.1]hept-2-yl-4-[(3S)-3-(methylamino)pyrrolidin-1-yl]pyridin-2-amine] | pA2 [2, 13]: 9 |
| 18.4 nM | 79.4 nM | c1nnc(NC2CC3CCC2C3)cc1N1CCCNCC1 (stereo not shown) [Example 308, N-Bicyclo[2.2.1]hept-2-yl-5-(1,4-diazepan-1-yl)pyridazin-3-amine] |  |
| 96.7 nM | 39.8 nM | CNC1CN(c2cnnc(NC3CC4CCC3C4)c2)C1 (stereo not shown) [Example 331, N-Bicyclo[2.2.1]hept-2-yl-5-[3-(methylamino)azetidin-1-yl]pyridazin-3-amine] |  |
| 7.14 nM |  | CN[C@H]1CCN(c2ccnc(NC3CC4CCC3C4)n2)C1 (stereo partly drawn) [Example 162, N-Bicyclo[2.2.1]hept-2-yl-4-[(3S)-3-(methylamino)pyrrolidin-1-yl]pyrimidin-2-amine] | pA2 [2, 13]: 8.1 |
| 19.2 nM |  | CN[C@@H]1CCN(c2ccnc(NC(C)C)c2)C1 [Example 12, 4-[(3R)-3-(Methylamino)pyrrolidin-1-yl]-N-(1-methylethyl)pyridin-2-amine] | pA2 [2, 13]: 8.5 |
| 16 nM | 12.6 nM | CN[C@@H]1CCN(c2ccnc(NC[C@H]3CC[C@H]4C[C@@H]3C4(C)C)n2)C1 [Example 193, N-{[(1S,2S,5S)-6,6-Dimethylbicyclo[3.1.1]hept-2-yl]methyl}-4-[(3R)-3-(methylamino)pyrrolidin-1-yl]pyrimidin-2-amine] |  |
| 54.3 nM | 63.1 nM | CN[C@H]1CCN(c2cnnc(NC3CCCC3)c2)C1 [Example 380, N-Cyclopentyl-5-[(3S)-3-(methylamino)pyrrolidin-1-yl]pyridazin-3-amine] |  |
| 7.26 nM | 2 nM | CCCNc1cc(N2CC[C@@H](NC)C2)ccn1 [Example 3, 4-[(3R)-3-(Methylamino)pyrrolidin-1-yl]-N-propylpyridin-2-amine dihydrochloride] |  |
| 6.48 nM | 25.1 nM | CN[C@@H]1CCN(c2ccnc(NCC34CC5CC(CC(C5)C3)C4)c2)C1 [Example 220, Adamantan-1-ylmethyl-[4-(3R)-(3-methylamino-pyrrolidin-1-yl)-pyridin-2-yl]-amine] |  |
|  |  | Cc1cnc(OCCCCC2CCN(C)CC2)cc1-c1nc2c(C)c(F)ccc2[nH]1 [5-Fluoro-4-methyl-2-{5-methyl-2-[4-(1-methyl-piperidin-4-yl)-butoxy]-pyridin-4-yl}-1H-benzoimidazole] | MCP-1 and TNF-α expression [3]: reduced; fat content in liver [3]: significantly reduced; fed and fasted glucose levels ([3]; 20 mg/kg PO): significantly reduced; insulin sensitivity as determined by an insulin tolerance test ([3]; 20 mg/kg PO): improved |
|  | 20 nM | CC(C)CNc1cc(N2CC[C@@H](N)C2)ccn1 [Example 20, 4-[(3R)-3-Aminopyrrolidin-1-yl]-N-(2-methylpropyl)pyridin-2-amine dihydrochloride] | Ki [1, 12]: 3.5 nM |
| 24.3 nM | 31.6 nM | CN[C@@H]1CCN(c2ccnc(NC[C@H]3CC[C@H]4C[C@@H]3C4(C)C)c2)C1 [Example 217, N-{[(1S,2S,5S)-6,6-Dimethylbicyclo[3.1.1]hept-2-yl]methyl}-4-[(3R)-3-(methylamino)pyrrolidin-1-yl]pyridin-2-amine] |  |
|  |  | Cc1cc(C)c2nc(-c3cnc(NCCCC4CCN(C)CC4)nc3C)[nH]c2c1 [[5-(4,6-dimethyl-1H-benzoimidazol-2-yl)-4-methyl-pyrimidin-2-yl]-[3-(1-methyl-piperidin-4-yl)-propyl]-amine] | LPS-induced TNF-α production and other cytokines [4]: inhibited; inflammation in mouse models of asthma, arthritis and dermatitis [5]: reduced inflammation; histamine-induced shape change of eosinophils [6]: inhibited; IL-6 production in mast cells [7]: inhibited; chemotaxis of mast cells [8]: inhibited; selectivity over other histamine receptors [9]: greater than 25 fold |
| 10.6 nM |  | N[C@@H]1CCN(c2ccnc(NC3CCCCC3)c2)C1 [Example 274, 4-[(3R)-3-Aminopyrrolidin-1-yl]-N-cyclohexylpyridin-2-amine] |  |
| 554 nM |  | c1cc(N2CCNCC2)cc(NCC2CCCO2)n1 (stereo not shown) [Example 39, 4-Piperazin-1-yl-N-(tetrahydrofuran-2-ylmethyl)pyridin-2-amine] |  |
| > 10000 nM |  | CNC1CN(c2cnnc(NCc3ccccn3)c2)C1 [Example 352, 5-[3-(Methylamino)azetidin-1-yl]-N-(pyridin-2-ylmethyl)pyridazin-3-amine] |  |
| 849 nM |  | CC(C)(CO)CNc1nccc(N2CC[C@H](N)C2)n1 [Example 130, 3-({4-[(3S)-3-Aminopyrrolidin-1-yl]pyrimidin-2-yl}amino)-2,2-dimethylpropan-1-ol] |  |
| 196 nM |  | CN[C@@H]1CCN(c2ccnc(NCc3ccccn3)n2)C1 [Example 83, [4-(3R)-(3-Methylamino-pyrrolidin-1-yl)-pyrimidin-2-yl]-pyridin-2-ylmethyl-amine] |  |
| 22.9 nM |  | CN1CCN(c2ccnc(NCC3CCCC3)n2)CC1 [Example 119, N-(Cyclopentylmethyl)-4-(4-methylpiperazin-1-yl)pyrimidin-2-amine] |  |
| 844 nM |  | COCCNc1nccc(N2CC[C@H](N)C2)n1 [Example 128, 4-[(3S)-3-Aminopyrrolidin-1-yl]-N-(2-methoxyethyl)pyrimidin-2-amine] |  |

| SMILES | Ki [1, 10] | Kb [2, 11] | further results |
| --- | --- | --- | --- |
| CC(C)CNc1cc(N2C[C@H]3CCN[C@H]3C2)ccn1 [Example 257, 4-[(3aR,6aR)-Hexahydropyrrolo[3,4-b]pyrrol-5(1H)-yl]-N-(2-methylpropyl)pyridin-2-amine] | 64.5 nM |  | Kb [2]: 50.1 nM |
| CN1CCN(c2ccnc(NC3CC3)n2)CC1 [Example 56, N-Cyclopropyl-4-(4-methylpiperazin-1-yl)pyrimidin-2-amine] | 568 nM |  |  |
